Source: PMC5025856, “A Novel Assay for Screening Inhibitors Targeting HIV Integrase LEDGF/p75 Interaction Based on Ni^2+ Coated Magnetic Agarose Beads” (Scientific Reports, 2016)
pIC50, pKd: −log10 of the molar value. Where two headings read alike, the source gives them in different places.

Legend:
[1] = molecular target: T1, PPI between HIV-1 IN CCD and LEDGF/p75 IBD (Homo sapiens, UniProt O75475); assay: IN CCD-LEDGF/p75 IBD PPI assay based on Ni-NTA magnetic agarose beads; type: binding
T1 construct: The IN CCD protein used contained HIV IN residues 50–212 fused with an C-terminal His6-tag; a fusion of LEDGF/p75 residues 347–471 with the N-terminal GST-tag; made in house; host or cells: bacterial expression vectors pET28a (IN CCD) and pGEX-4T-1 (IBD)
Description: In the assay, GST–tagged LEDGF/p75 IBD (yellow) is mixed with His6-tagged IN CCD (green) at the desired concentrations. After incubation at room temperature, a double-tagged PPI complex with N-terminal GST-tag and C-terminal His6-tag is established between two protein partners. The PPI complex is captured by Ni^2+-coated magnetic beads (red) through His6-tag, followed by the addition of alkaline phosphatase conjugated anti-GST antibody (dark red). Therefore, the product could be measured by the alkaline phosphatase conjugated-coupled enzyme reaction (Fig. 1A).
The IN CCD-LEDGF/p75 IBD interaction assay was developed based on Ni-NTA Magnetic Agarose Beads (BEAVER Nano-technologies Co., Ltd. Suzhou, China). The assay was optimized for use in 96-well nonbinding surface microplates (Corning, New York, USA) in a final volume of 100 μl per well. Briefly, the assay works as follows. Compounds and proteins were diluted to 10× and 5× working solutions in the 1× assay buffer (25 mM Tris-HCl, pH 7.4, 150 mM NaCl, 1 mM MgCl2, 0.05% BSA[v/w]) respectively. Firstly, 10 μl compound dilution, 50 μl 1× buffer, 20 μl each of protein dilutions were pipetted into the wells. The plate was sealed and left to incubate at 200 rpm for 3 h at RT. Secondly, 10 μl of Ni-NTA Magnetic Agarose Beads were added followed by incubating at 900 rpm for 30 min at RT. Thirdly, the wells holding the mixture were placed on a magnetic concentrator, the supernatant was discarded, and the wells were washed 3 times with 200 μl wash buffer (50 mM sodium phosphate, pH 7.4, 150 mM NaCl, 0.005% tween-20[v/v], 20 mM imidazole). Fourthly, the wells were incubated with 100 μl of a 1:4000 solution of mouse anti-GST antibody (Sigma, USA) in antibody dilution buffer (50 mM Sodium Phosphate, pH 7.4, 150 mM NaCl, 0.005% Tween-20[v/v], 0.5%[w/v] BSA) at 900 rpm for 30 min at 37 °C, followed by washing three times. Fifthly, the wells were incubated with 100 μl of a 1:5000 solution of rabbit anti-mouse IgG alkaline phosphatase conjugated antibody (Sigma, USA) in antibody dilution buffer at 900 rpm for 30 min at 37 °C, followed by washing 3 times. Lastly, the color reaction was developed with 100 μl substrate buffer (10 mM diethanolamine, pH 9.8, 0.5 mM MgCl2, 8 mM p-NPP) for 30 min at 37 °C. The absorbance ([…]) of each well was measured in an Enspire multimode reader (PerkinElmer, USA). The reproducibility, signal stability, and robustness of this PPI assay were determined to ensure its compatible for HTS. Furthermore, IL23, an IN CCD-LEDGF/p75 IBD PPI inhibitor, was used to validate the assay efficiency.
In total, 1000 compounds selected at random from ‘The Spectrum Collection’ were purchased from National compound resource center. The library, which is composed of 2,320 compounds in 10 mM DMSO solution, lists primarily FDA-approved human therapeutic drugs, drug-like compounds, and natural products. Each compound was diluted in DMSO to reach a concentration of 300 μM, which was used as the 10× compound stock. In all screening campaigns, the negative control was based on the use of PPI binding mutant controls (single-point mutation) that would prevent the PPI from forming, and the positive control contained 10% (v/v) DMSO only. The negative and positive control with 8 replicates wells each located randomly among the 96 wells of each plate.
The z′ factor, signal-to-noise ratio (S/N), signal-to-background ratio (S/B), signal window (SW), and coefficient of variation (CV) were calculated and then compared with the minimum pass criteria (z′ >0.5, S/N>10, S/B > 3, SW >2, CV < 20%)[39][40][41][42]. The “hits” for PPI assays were classified as compounds that led to more than 60% disruption of a PPI complex. All HTS data were processed using Excel (Microsoft Corp.) and visualized using Prism 5.0 (GraphPad Software).

cancer xenograft models = test system: cancer xenograft models; parameters: method as in PMID 25093583; settings: primary screen hit in cancer xenograft models; cited from earlier work
His6-tagged GST protein = molecular target: T2, His6-tagged GST protein (Schistosoma japonicum, UniProt P08515); assay: Non-specificity counterscreen with His6-GST protein; settings: dose-response, 10 nM His6-tagged GST protein
T2 construct: made in house; host or cells: bacterial expression vector pGEX-4T-1
Description: The false positive compound identified in this HTS may affect the assay by forming hydrogen bonds interaction with His6-tag of IN CCD or forming chelating complexes with Ni^2+-ion covering magnetic beads surface. […] Any compound that interfered with bead or with the His6-tag of double-tagged protein would result in a decreased signal in the counterscreen assay.
A counterscreen was carried out as described above, with the replacement of purified HIV-1 IN CCD and LEDGF/p75 IBD with 10 nM His6-tagged GST protein.

LEDGF/p75 = LEDGF/p75 (Homo sapiens, UniProt O75475); assay: Biolayer interferometry (BLI) binding to LEDGF/p75; settings: ForteBIO Octet, 1:1 Langmuir global fit, read-out: dissociation constant Kd
Description: Biolayer interferometry (BLI) was used to study the kinetics of dexlansoprazole binding to LEDGF/p75 on a ForteBio Octet, according to the manufacturer’s instructions and published methods. Streptavidin biosensors tips were pre-wetted with buffer and immobilized with biotinylated protein. The biosensors were then transferred into wells containing dexlansoprazole in serial dilutions from 32 μM to 1 μM concentrations. Protein–ligand binding was measured by monitoring the changes in the interferometric profile of the wavelength of light passing through the sensor. Binding curves were analyzed using ForteBIO software, which performs a global fit according to the 1:1 Langmuir model to obtain the kinetic rate constants for each set of interaction conditions.

[2] = molecular target: HIV-1 integrase catalytic core domain (IN CCD), residues 50-212, F185K, C-terminal His6-tag (HIV-1); assay: ELISA; ELISA-based magnetic bead assay: GST-IBD and His6-CCD mixed in solution (25 mM Tris-HCl pH 7.4, 150 mM NaCl, 1 mM MgCl2, 0.05% BSA, 3 h RT), complex captured on Ni-NTA magnetic agarose beads by the His6-tag, detected with anti-GST antibody and alkaline phosphatase conjugate, absorbance read-out (A405); optimal conditions, ratio 1:1
[3] = molecular target: HIV-1 IN CCD W131E (residues 50-212, F185K, W131E), C-terminal His6-tag (HIV-1); assay: as above
[4] = IN CCD-LEDGF/p75 IBD PPI, magnetic-beads assay, dose response, read-out: IC50
[5] = at 30 μM for each proton-pump inhibitor, PPI between LEDGF/p75 IBD and IN CCD, read-out: Inhibition (%)

| Compound | pIC50 [1, 4] | inhibition at 30 µM [1, 5] | further results |
| --- | --- | --- | --- |
| COc1ccc2nc([S@@+]([O-])Cc3ncc(C)c(OC)c3C)[nH]c2c1 [Esomeprazole] | < 4.52 | 22% | – |
| Cc1c(OCC(F)(F)F)ccnc1C[S@@+]([O-])c1nc2ccccc2[nH]1 [Dexlansoprazole] | – | 75.2% | anti-cancer activity (cancer xenograft models): poor; effect on the assay system (counterscreen) (His6-tagged GST protein): almost had no effect; pIC50 [1]: 5.32; inhibition at 30 µM ([1]; confirmatory screening, triplicate, 30 μM, read-out: inhibitory rate): 90.3%; inhibitory activity against IN CCD-LEDGF/p75 IBD interaction (in words) ([1]; qualitative statement): moderate inhibitory activity; pKd (LEDGF/p75): 6.48 |
| COc1ccc2[nH]c([S+]([O-])Cc3ncc(C)c(OC)c3C)nc2c1 (centres unmarked) [Omeprazole] | < 4.52 | 26.2% | – |
| COc1ccnc(C[S+]([O-])c2nc3ccc(OC(F)F)cc3[nH]2)c1OC (centres unmarked) [Pantoprazole] | – | -23.9% | – |
| LEDGF/p75 IBD D366N (residues 347-471), N-terminal GST-tag (from UniProt O75475 347-471) (domain or fragment) | – | – | A405 signal [2]: < 0.01 A405 |
| Cc1c(OCC(F)(F)F)ccnc1C[S+]([O-])c1nc2ccccc2[nH]1 (centres unmarked) [Lansoprazole] | – | -86.2% | – |
| COCCCOc1ccnc(C[S+]([O-])c2nc3ccccc3[nH]2)c1C (centres unmarked) [Rabeprazole] | < 4.52 | 14.5% | – |
| LEDGF/p75 integrase binding domain (LEDGF/p75 IBD), residues 347-471, N-terminal GST-tag (from UniProt O75475 347-471) (domain or fragment) | – | – | A405 signal [2]: 0.66 A405; A405 signal [3]: < 0.01 A405 |
| COc1ccc2[nH]c([S+]([O-])Cc3ncc(C)c(OC)c3C)nc2n1 (centres unmarked) [Tenatoprazole] | < 4.52 | 33.6% | – |
